Measured values: patent publication US20070117770A1, “Human ribosomal DNA (rDNA) and ribosomal RNA (rRNA) nucleic acids and uses thereof” (Cylene Pharmaceuticals, Inc., priority 2005, published 2007)

What was measured:
[1] = target: PRK2(h) (Homo sapiens, UniProt Q16513); assay: Protein kinase inhibition assay; type: biochemical; conditions: read-out: percent residual activity of PRK2(h)
Description: (§1) Certain compounds were tested for activity in protein kinase inhibition assays. All substrates were dissolved and diluted to working stocks in de-ionized water, apart from histone H1 (10× working stock in 20 mM MOPS pH 7.0), PDKtide (10× working stock in 50 mM Tris pH 7.0) ATF2 (which is typically stored at a 20× working stock in 50 mM Tris pH 7.5, 150 mM NaCl, 0.1 mM EGTA, 0.03% Brij-35, 50% glycerol, 1 mM benzamidine, 0.2 mM PMSF and 0.1% R-mercaptoethanol), KKLNRTLSFAEPG (SEQ ID NO:203) and RRRLSFAEPG (SEQ ID NO:204) (50 mM HEPES pH 7.4) and GGEEEEYFELVKKKK (SEQ ID NO:205) (20 mM MOPS pH 7.0). All kinases were pre-diluted to a 10× working concentration prior to addition into the assay. The composition of the dilution buffer for each kinase is detailed below.
(§2) In a final reaction volume of 25 μl, PRK2 (h) (5-10 mU) is incubated with 50 mM Tris pH 7.5, 0.1 mM EGTA, 0.1% R-mercaptoethanol, 30 μM AKRRRLSSLRA (SEQ ID NO:226), 10 mM MgAcetate and [gamma-33P-ATP] (specific activity approx. 500 cpm/pmol, concentration as required). The reaction is initiated by the addition of the MgATP mix. After incubation for 40 minutes at room temperature, the reaction is stopped by the addition of 5 μl of a 3% phosphoric acid solution. […]

[2] = target: JNK1α1(h) (Homo sapiens, UniProt P45983); assay: Protein kinase inhibition assay; type: biochemical; conditions: read-out: percent residual activity of JNK1α1(h)
Description: as §1
(§3) In a final reaction volume of 25 μl, JNK1α (h) (5-10 mU) is incubated with 50 mM Tris pH 7.5, 0.1 mM EGTA, 0.1% R-mercaptoethanol, 3 μM ATF2, 10 mM MgAcetate and [gamma-33P-ATP] (specific activity approx. 500 cpm/pmol, concentration as required). The reaction is initiated by the addition of the MgATP mix. After incubation for 40 minutes at room temperature, the reaction is stopped by the addition of 5 μl of a 3% phosphoric acid solution. 10 μl of the reaction is then spotted onto a P30 filtermat and washed three times for 5 minutes in 75 mM phosphoric acid and once in methanol prior to drying and scintillation counting.

[3] = target: PKA(h) (Homo sapiens, UniProt P17612); assay: Protein kinase inhibition assay; type: biochemical; conditions: read-out: percent residual activity of PKA(h)
Description: as §1
In a final reaction volume of 25 μl, PKA (h) (5-10 mU) is incubated with 8 mM MOPS pH 7.0, 0.2 mM EDTA, 30 μM LRRASLG (SEQ ID NO:209) (Kemptide), 10 mM MgAcetate and [y-33P-ATP] (specific activity approx. 500 cpm/pmol, concentration as required). The reaction is initiated by the addition of the MgATP mix. After incubation for 40 minutes at room temperature, the reaction is stopped by the addition of 5 μl of a 3% phosphoric acid solution. 10 μl of the reaction is then spotted onto a P30 filtermat and washed three times for 5 minutes in 50 mM phosphoric acid and once in methanol prior to drying and scintillation counting.

[4] = system: c-myc mRNA in HCT116 cells; assay: RNA Polymerase II-dependent RNA synthesis (c-myc mRNA, Taqman qRT-PCR); type: cell-based; conditions: at the tested concentrations
Description: Effects of compound A-1 and compound B-1 on DNA synthesis, RNA synthesis and protein synthesis were determined in HCT116 cells. HCT116 cells were plated overnight at 100,000 cells per mL. Next day cells were treated with increasing amounts of either compound A-1 or compound B-1 followed by one hour incubation with BrdU label (from a BrdU Cell proliferation Assay Kit, Calbiochem) to monitor DNA synthesis; […] of ^3H-uridine to monitor total RNA synthesis; […] of ^3H-methionine to monitor protein synthesis or plain media to monitor RNA Polymerase II-dependent RNA synthesis. DNA synthesis was assessed using a BrdU-ELISA (BrdU Cell proliferation Assay Kit, Calbiochem). To measure total RNA synthesis, total RNA from treated cells was isolated with a RNease kit (QIAGEN), levels of total RNA were assessed with Ribogreen reagent (Invitrogen) and the newly synthesized tritiated RNA was measured in a scintillation Counter (Perkin Elmer). To measure effects on protein synthesis, cells were lysed in a RIPA buffer, and total protein was precipitated with 10% TCA on a glass-filters. Newly synthesized tritiated protein was measured in a scintillation Counter (Perkin Elmer). Effects of drugs on […] RNA synthesis were assessed by monitoring levels of a c-myc mRNA, which has a relatively short half-life of approximately 30 minutes, by Taqman qRT-PCR (ABI).

[5] = target: MAPKAP-K2(h) (Homo sapiens, UniProt P49137); assay: Protein kinase inhibition assay; type: biochemical; conditions: read-out: percent residual activity of MAPKAP-K2(h)
Description: as §1
as §2, with “MAPKAP-K2” for “PRK2”, “Na R-glycerophosphate” for “Tris”, “EGTA,” for “EGTA, 0.1% R-mercaptoethanol,”, “KKLNRTLSVA” for “AKRRRLSSLRA”, “NO:212),” for “NO:226),”

[6] = target: MAPK2(h) (Homo sapiens, UniProt P28482); assay: Protein kinase inhibition assay; type: biochemical; conditions: read-out: percent residual activity of MAPK2(h)
Description: as §1
as §3, with “μl, MAPK2” for “μl, JNK1α”, “with 25” for “with 50”, “7.5, 0.02” for “7.5, 0.1”, “EGTA, 0.33 mg/ml myelin basic protein,” for “EGTA, 0.1% R-mercaptoethanol, 3 μM ATF2,”, “of […]” for “of 5 μl”

JNK1α1(h), sequence (P45983 1-384 isoform P45983-2): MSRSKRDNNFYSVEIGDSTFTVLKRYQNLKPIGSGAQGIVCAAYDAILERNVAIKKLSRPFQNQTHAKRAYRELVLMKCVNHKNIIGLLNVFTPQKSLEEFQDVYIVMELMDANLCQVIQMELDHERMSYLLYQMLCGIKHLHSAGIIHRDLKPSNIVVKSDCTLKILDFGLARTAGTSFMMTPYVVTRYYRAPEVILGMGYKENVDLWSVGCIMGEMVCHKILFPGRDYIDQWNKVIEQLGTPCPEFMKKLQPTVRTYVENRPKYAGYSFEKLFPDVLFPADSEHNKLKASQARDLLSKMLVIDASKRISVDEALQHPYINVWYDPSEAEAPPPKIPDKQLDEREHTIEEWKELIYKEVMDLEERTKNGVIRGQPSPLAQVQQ
MAPK2(h), sequence (P28482 whole entry): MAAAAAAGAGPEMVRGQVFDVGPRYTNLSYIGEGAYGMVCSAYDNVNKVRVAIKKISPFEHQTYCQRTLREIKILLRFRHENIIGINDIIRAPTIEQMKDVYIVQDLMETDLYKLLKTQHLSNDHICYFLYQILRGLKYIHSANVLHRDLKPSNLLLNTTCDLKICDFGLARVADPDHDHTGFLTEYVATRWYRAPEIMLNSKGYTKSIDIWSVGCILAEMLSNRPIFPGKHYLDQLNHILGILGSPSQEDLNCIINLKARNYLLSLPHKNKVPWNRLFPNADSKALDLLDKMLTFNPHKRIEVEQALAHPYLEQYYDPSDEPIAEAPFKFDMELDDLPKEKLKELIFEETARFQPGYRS
PRK2(h), sequence (Q16513 whole entry): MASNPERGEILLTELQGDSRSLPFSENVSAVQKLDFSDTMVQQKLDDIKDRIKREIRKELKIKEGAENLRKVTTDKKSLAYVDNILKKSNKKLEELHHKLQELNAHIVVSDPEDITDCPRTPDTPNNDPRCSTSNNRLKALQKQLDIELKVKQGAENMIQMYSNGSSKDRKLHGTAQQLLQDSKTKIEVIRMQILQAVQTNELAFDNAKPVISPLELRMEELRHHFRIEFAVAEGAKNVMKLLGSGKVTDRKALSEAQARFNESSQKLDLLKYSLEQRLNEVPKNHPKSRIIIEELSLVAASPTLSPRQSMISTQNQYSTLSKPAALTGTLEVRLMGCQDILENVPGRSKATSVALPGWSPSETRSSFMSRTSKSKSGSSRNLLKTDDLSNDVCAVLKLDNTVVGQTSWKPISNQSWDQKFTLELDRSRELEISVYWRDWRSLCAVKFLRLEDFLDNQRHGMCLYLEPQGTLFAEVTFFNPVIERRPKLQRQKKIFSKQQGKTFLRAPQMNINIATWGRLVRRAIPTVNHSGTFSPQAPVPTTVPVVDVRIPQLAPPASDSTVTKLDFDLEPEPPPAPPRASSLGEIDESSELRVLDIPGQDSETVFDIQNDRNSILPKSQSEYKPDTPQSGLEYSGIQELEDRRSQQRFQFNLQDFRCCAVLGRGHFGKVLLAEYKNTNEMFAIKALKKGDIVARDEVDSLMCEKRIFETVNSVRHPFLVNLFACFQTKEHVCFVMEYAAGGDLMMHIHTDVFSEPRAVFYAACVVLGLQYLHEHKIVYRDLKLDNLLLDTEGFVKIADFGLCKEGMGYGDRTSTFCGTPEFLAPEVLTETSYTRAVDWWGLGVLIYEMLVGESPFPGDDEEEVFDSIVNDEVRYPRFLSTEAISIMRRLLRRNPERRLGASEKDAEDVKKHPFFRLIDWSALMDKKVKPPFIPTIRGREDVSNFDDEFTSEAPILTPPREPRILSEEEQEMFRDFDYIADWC
MAPKAP-K2(h), sequence (P49137 whole entry): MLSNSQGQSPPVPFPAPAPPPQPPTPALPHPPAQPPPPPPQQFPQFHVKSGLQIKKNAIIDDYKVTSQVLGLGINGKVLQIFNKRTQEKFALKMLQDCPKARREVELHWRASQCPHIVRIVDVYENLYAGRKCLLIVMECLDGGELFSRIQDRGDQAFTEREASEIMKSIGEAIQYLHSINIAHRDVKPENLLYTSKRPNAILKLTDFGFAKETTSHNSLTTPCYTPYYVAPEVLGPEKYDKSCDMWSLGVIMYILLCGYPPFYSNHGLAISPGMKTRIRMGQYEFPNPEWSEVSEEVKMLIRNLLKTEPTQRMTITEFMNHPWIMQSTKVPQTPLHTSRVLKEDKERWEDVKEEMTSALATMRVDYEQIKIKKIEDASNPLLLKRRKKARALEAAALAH

Work on `CN1CCCC1CCNC(=O)c1cn2c3c(c(N4CCC(c5cnccn5)C4)c(F)cc3c1=O)Oc1cc3ccccc3cc1-2` (stereo not drawn) [Compound A-1] yielded a remaining activity at 2.5 µM [1] of 36%, a remaining activity at 2.5 µM [2] of 94% and a remaining activity at 2.5 µM [3] of 105%. For the same compound, the “effect on c-myc mRNA levels” value [4] was “no measureable effect”, the remaining activity at 2.5 µM [5] was 79% and the remaining activity at 2.5 µM [6] was 101%.

With `CC(=O)N1CCN(c2ccc3c(=O)c(C(=O)NCCN4CCCC4)c4n(C)c5ccccc5n4c3n2)CC1` [Compound B-1] the remaining activity at 2.5 µM [1] was 110%, the remaining activity at 2.5 µM [2] was 100% and the remaining activity at 2.5 µM [3] was 97%. The “effect on c-myc mRNA levels” value [4] was “no measureable effect”, the remaining activity at 2.5 µM [5] was 99% and the remaining activity at 2.5 µM [6] was 108%.
